Assay results published in US9518018B2, “3-alkoxy, thioalkyl and amino-4-amino-6-(substituted)picolinates and their use as herbicides” (Dow AgroSciences LLC, priority 2011, dated 2016).
Like-named read-outs stand apart in the source and are kept apart here.

Key:
[1] = system: POLCO: buckwheat, wild (Polygonum convolvulus); assay: Post-Emergent Test I herbicidal activity; type: in vivo
Summary of the method: (§1)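 Foliar spray, 187 L/ha, track sprayer; plants at 1st–2nd true leaf, 7–21 d old. Carrier: acetone/DMSO + aqueous acetone/IPA/crop oil/Triton X-155; high rate plus ½×–1/16× dilutions. Subirrigated; visual % injury vs untreated at 14 d.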

[2] = system: CYPES: yellow nutsedge (Cyperus esculentus); assay: Post-Emergent Test I herbicidal activity; type: in vivo; settings: post-emergence, 336 h, Table 3, 280 g ai/ha, read-out: Visual Growth Reduction (%)-14 Days after Application CYPES
Summary of the method: as §1

[3] = system: CHEAL: lambsquarters (Chenopodium album); assay: Post-Emergent Test I herbicidal activity; type: in vivo
Summary of the method: as §1

[4] = system: ABUTH: velvetleaf (Abutilon theophrasti); assay: Post-Emergent Test I herbicidal activity; type: in vivo
Summary of the method: as §1

[5] = system: ORYSA: rice (Oryza sativa); assay: Post-Emergent Test I herbicidal activity; type: in vivo; settings: post-emergence, 336 h, Table 3, 280 g ai/ha, read-out: Visual Growth Reduction (%)-14 Days after Application ORYSA
Summary of the method: (§2)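 Visual injury ratings (0 = none, 100 = complete kill) taken 14 d after treatment, compared with untreated plants, feed probit-derived GR20/GR50/GR80. Application: overhead spray, 187 L/ha, highest rate and ½×-1/16× dilutions in acetone-DMSO-based aqueous spray mix with crop oil and surfactant, onto plants grown 7-21 d to first or second true leaf.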

[6] = system: EPHHL: wild poinsettia (Euphorbia heterophylla); assay: Post-Emergent Test I herbicidal activity; type: in vivo; settings: post-emergence, 336 h, Table 3, 280 g ai/ha, read-out: Visual Growth Reduction (%)-14 Days after Application EPHHL
Summary of the method: as §1

ZEAMX: corn (Zea mays) = assay: Post-Emergent Test I herbicidal activity; type: in vivo
Summary of the method: as §1

[7] = system: ECHCG: barnyardgrass (Echinochloa crus-galli); assay: Post-Emergent Test I herbicidal activity; type: in vivo; settings: post-emergence, 336 h, Table 3, 280 g ai/ha, read-out: Visual Growth Reduction (%)-14 Days after Application ECHCG
Summary of the method: as §2

[8] = system: TRZAS: wheat, spring (Triticum aestivum); assay: Post-Emergent Test I herbicidal activity; type: in vivo
Summary of the method: as §2

[9] = Table 4, growth reduction of 20% of plant growth, 14 days after application, probit analysis
[10] = Table 4, growth reduction of 50% of plant growth, 14 days after application, probit analysis
[11] = Table 4, growth reduction of 80% of plant growth, 14 days after application, probit analysis

Structure (SMILES): COC(=O)c1nc(Cl)cc(N)c1OC [Compound 1, methyl 4-amino-6-chloro-3-methoxypicolinate]
- melting point: 78 to 79 °C
- Visual Growth Reduction (%)-14 Days after Application POLCO ([1]; Table 4, 17.5 g ai/ha): 100%
- Visual Growth Reduction (%)-14 Days after Application POLCO ([1]; Table 4, 35 g ai/ha): 100%
- Visual Growth Reduction (%)-14 Days after Application POLCO ([1]; Table 4, 70 g ai/ha): 100%
- Visual Growth Reduction (%)-14 Days after Application POLCO ([1]; Table 4, 140 g ai/ha): 95%
- Visual Growth Reduction (%)-14 Days after Application POLCO ([1]; Table 4, 280 g ai/ha): 100%
- GR20 POLCO [1, 9]: <17.5 g ai/ha
- GR50 POLCO [1, 10]: <17.5 g ai/ha
- GR80 POLCO [1, 11]: <17.5 g ai/ha
- pest or weed control at 280 g/ha [2]: 0%
- pest or weed control at 280 g/ha ([3]; Chenopodium album, post-emergence, 336 h, Table 3, 280 g ai/ha, read-out: Visual Growth Reduction (%)-14 Days after Application CHEAL): 100%
- pest or weed control at 17.5 g/ha ([3]; Chenopodium album, post-emergence, 336 h, Table 4, 17.5 g ai/ha, read-out: Visual Growth Reduction (%)-14 Days after Application CHEAL): 90%
- pest or weed control at 35 g/ha ([3]; Chenopodium album, post-emergence, 336 h, Table 4, 35 g ai/ha, read-out: Visual Growth Reduction (%)-14 Days after Application CHEAL): 90%
- pest or weed control at 70 g/ha ([3]; Chenopodium album, post-emergence, 336 h, Table 4, 70 g ai/ha, read-out: Visual Growth Reduction (%)-14 Days after Application CHEAL): 95%
- pest or weed control at 140 g/ha ([3]; Chenopodium album, post-emergence, 336 h, Table 4, 140 g ai/ha, read-out: Visual Growth Reduction (%)-14 Days after Application CHEAL): 100%
- Visual Growth Reduction (%)-14 Days after Application CHEAL ([3]; Table 4, 280 g ai/ha): 100%
- GR20 CHEAL [3, 9]: <17.5 g ai/ha
- GR50 CHEAL [3, 10]: <17.5 g ai/ha
- GR80 CHEAL [3, 11]: <17.5 g ai/ha
- pest or weed control at 280 g/ha ([4]; Abutilon theophrasti, post-emergence, 336 h, Table 3, 280 g ai/ha, read-out: Visual Growth Reduction (%)-14 Days after Application ABUTH): 100%
- pest or weed control at 17.5 g/ha ([4]; Abutilon theophrasti, post-emergence, 336 h, Table 4, 17.5 g ai/ha, read-out: Visual Growth Reduction (%)-14 Days after Application ABUTH): 40%
- pest or weed control at 35 g/ha ([4]; Abutilon theophrasti, post-emergence, 336 h, Table 4, 35 g ai/ha, read-out: Visual Growth Reduction (%)-14 Days after Application ABUTH): 85%
- pest or weed control at 70 g/ha ([4]; Abutilon theophrasti, post-emergence, 336 h, Table 4, 70 g ai/ha, read-out: Visual Growth Reduction (%)-14 Days after Application ABUTH): 95%
- pest or weed control at 140 g/ha ([4]; Abutilon theophrasti, post-emergence, 336 h, Table 4, 140 g ai/ha, read-out: Visual Growth Reduction (%)-14 Days after Application ABUTH): 95%
- pest or weed control at 280 g/ha ([4]; Abutilon theophrasti, post-emergence, 336 h, Table 4, 280 g ai/ha, read-out: Visual Growth Reduction (%)-14 Days after Application ABUTH): 100%
- GR20 ABUTH [4, 9]: 10.5 g ai/ha
- GR50 ABUTH [4, 10]: 19.4 g ai/ha
- GR80 ABUTH [4, 11]: 35.9 g ai/ha
- pest or weed control at 280 g/ha [5]: 0%
- pest or weed control at 280 g/ha [6]: 100%
- GR20 ZEAMX (ZEAMX: corn (Zea mays); [9]): >280 g ai/ha
- GR50 ZEAMX (ZEAMX: corn (Zea mays); [10]): >280 g ai/ha
- GR80 ZEAMX (ZEAMX: corn (Zea mays); [11]): >280 g ai/ha
- pest or weed control at 280 g/ha (ZEAMX: corn (Zea mays); Zea mays, post-emergence, 336 h, Table 3, 280 g ai/ha, read-out: Visual Growth Reduction (%)-14 Days after Application ZEAMX): 0%
- pest or weed control at 17.5 g/ha (ZEAMX: corn (Zea mays); Zea mays, post-emergence, 336 h, Table 4, 17.5 g ai/ha, read-out: Visual Growth Reduction (%)-14 Days after Application ZEAMX): 0%
- pest or weed control at 35 g/ha (ZEAMX: corn (Zea mays); Zea mays, post-emergence, 336 h, Table 4, 35 g ai/ha, read-out: Visual Growth Reduction (%)-14 Days after Application ZEAMX): 0%
- pest or weed control at 70 g/ha (ZEAMX: corn (Zea mays); Zea mays, post-emergence, 336 h, Table 4, 70 g ai/ha, read-out: Visual Growth Reduction (%)-14 Days after Application ZEAMX): 0%
- pest or weed control at 140 g/ha (ZEAMX: corn (Zea mays); Zea mays, post-emergence, 336 h, Table 4, 140 g ai/ha, read-out: Visual Growth Reduction (%)-14 Days after Application ZEAMX): 0%
- pest or weed control at 280 g/ha (ZEAMX: corn (Zea mays); Zea mays, post-emergence, 336 h, Table 4, 280 g ai/ha, read-out: Visual Growth Reduction (%)-14 Days after Application ZEAMX): 0%
- pest or weed control at 280 g/ha [7]: 0%
- Visual Growth Reduction (%)-14 Days after Application TRZAS ([8]; Table 4, 17.5 g ai/ha): 0%
- Visual Growth Reduction (%)-14 Days after Application TRZAS ([8]; Table 4, 35 g ai/ha): 0%
- Visual Growth Reduction (%)-14 Days after Application TRZAS ([8]; Table 4, 70 g ai/ha): 0%
- Visual Growth Reduction (%)-14 Days after Application TRZAS ([8]; Table 4, 140 g ai/ha): 0%
- Visual Growth Reduction (%)-14 Days after Application TRZAS ([8]; Table 4, 280 g ai/ha): 0%
- GR20 TRZAS [8, 9]: >280 g ai/ha
- GR50 TRZAS [8, 10]: >280 g ai/ha
- GR80 TRZAS [8, 11]: >280 g ai/ha
